Results from patent US20210171904A1, “CELL CULTURE METHOD AND CELL CULTURE APPARATUS” (NIKKISO CO., LTD., priority 2018, published 2021).

What was measured:
[1] = system: human pluripotent stem cells; experiment: Optical microscope observation of cells on the 5th day of culture in waste-added medium; assay type: cell-based
Procedure: (§1) Onto a 24-well plate (Corning cellBIND Surface: from Corning Incorporated), seeded were 1×10^3 human pluripotent stem cells, to which a medium for pluripotent stem cell (StemFit: from Ajinomoto Co. Inc.) was added, and then cultured. To the medium before 24 hours from the start of culture, a culture substrate (iMatrix-511; from Nippi, Inc.) was added so as to adjust the concentration to 0.5 μg/ml, and also ROCK inhibitor (Y-27632: from FUJIFILM Wako Pure Chemical Corporation) was added so as to adjust the concentration to 10 μM.
The individual cells on the 5th day of culture were observed under an optical microscope. FIG. 6 presents optical microphotographs of the cells cultured in the lactic acid-added medium.
Onto a 24-well plate (Corning cellBIND Surface: from Corning Incorporated), seeded were 1×10^3 human pluripotent stem cells, to which a medium for pluripotent stem cell (StemFit: from Ajinomoto Co. Inc.) was added, and then cultured. To the medium before 24 hours from the start of culture, a culture substrate (iMatrix-511; from Nippi, Inc.) was added so as to adjust the concentration to 0.5 μg/ml, and also ROCK inhibitor (Y-27632: from FUJIFILM Wako Pure Chemical Corporation) was added so as to adjust the concentration to 10 μM. […]

[2] = system: human pluripotent stem cells; experiment: Cell density of human pluripotent stem cells after 5 days culture in waste-added medium (cell counter); assay type: cell-based; settings: ammonium chloride added
Procedure: as §1
After the elapse of 5 days, the number of cells in each well was measured by using TC20 full-automatic cell counter (from Bio-Rad Laboratories, Inc.), to calculate cell density. Results are illustrated in FIG. 5.
Onto a 24-well plate (Corning cellBIND Surface: from Corning Incorporated), seeded were 1×10^3 human pluripotent stem cells, to which a medium for pluripotent stem cell (StemFit: from Ajinomoto Co. Inc.) was added, and then cultured. […]
After the elapse of 5 days, the number of cells in each well was measured by using TC20 full-automatic cell counter (from Bio-Rad Laboratories, Inc.), to calculate cell density. […]

[3] = system: human pluripotent stem cells; experiment: Real-time PCR of undifferentiation/differentiation marker gene expression (Oct4, Nanog, T, Pax6, Fox2) on the 6th day of culture; assay type: cell-based; settings: ammonia 2.5 mM
Procedure: mRNA was then extracted from each cell on the 6th day of culture, using RNeasy Mini Kit (from QIAGEN N.V.), and then purified. Next, cDNA was synthesized from the thus purified mRNA, by using QuantiTect Reverse Transcription Kit (from QIAGEN N.V.). By using each cDNA as a template, and by using Thermal Cycler Dice Real Time System I (from Takara Bio Inc.), expression levels of Oct4, Nanog, T, Pax6 and Fox2 genes were measured by real-time PCR.
Proportion of expression levels of the individual genes at the individual concentration levels of ammonia were calculated, on the basis of the expression level at an ammonia concentration of 0 mM. FIG. 10 is a chart summarizing relation between the ammonia concentration and the gene expression levels. […] This confirms that keeping of the ammonia concentration at lower than 2.5 mM is effective to keep the cell in the undifferentiated state. It was also confirmed that the ammonia-induced promotion of cell differentiation may be suppressed more reliably, by keeping the ammonia concentration at 1 mM or below.

[4] = pH of medium after addition of lactic acid (pH-uncorrected group); assay type: physicochemical

Compound | ammonia concentration at which morphological changes of the cell were observed [1] | ammonia concentration at which cell density sharply decreases [2] | expression level of Pax6 gene (ectoderm differentiation marker) relative to level at 0 mM [3] | expression level of T gene (mesoderm differentiation marker) relative to level at 0 mM [3] | pH of the medium ([4]; lactic acid concentration 5.0 mM) | pH of the medium ([4]; lactic acid concentration 7.5 mM) | pH of the medium ([4]; lactic acid concentration 10 mM) | pH of the medium ([4]; lactic acid concentration 15 mM)
N [ammonia] | ≥ 2.5 mM | ≥ 10.0 mM | nearly ten times | nearly ten times | – | – | – | –
CC(O)C(=O)O (centres unmarked) [lactic acid] | – | – | – | – | 6.9 | 6.8 | 6.7 | 6.5
